The source of these data is patent publication US20250215029A1 (Recludix Pharma, Inc., priority 2022, published 2025).

Test [1] deals with T1, Recombinant STAT3 protein (STAT3 (G127-I722)) (Homo sapiens, UniProt P40763).
T1 construct: Recombinant STAT3 protein (STAT3 (G127-I722))
In words: STAT3 Fluorescence Polarization (FP) Assay. To be noted: STAT3 (G127-I722) 25 nM, probe 5-FAM-GpYLPQTV-NH2 2 nM, 45-minute incubation; read-out: STAT3 (FP assay IC50 class). Format: binding. An outline of the steps: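 Displacement of a 2 nM 5-FAM-labelled pY peptide (GpYLPQTV) from 25 nM recombinant STAT3 (G127-I722) was monitored by fluorescence polarization. Incubation lasted 45 min at room temperature in pH 7.4 HEPES buffer containing 1% DMSO.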

The target of test [2] is T2, Recombinant STAT6 protein (STAT6 (W123-T658)) (Homo sapiens, UniProt P42226).
T2 construct: Recombinant STAT6 protein (STAT6 (W123-T658))
T2 sequence (P42226 123-658): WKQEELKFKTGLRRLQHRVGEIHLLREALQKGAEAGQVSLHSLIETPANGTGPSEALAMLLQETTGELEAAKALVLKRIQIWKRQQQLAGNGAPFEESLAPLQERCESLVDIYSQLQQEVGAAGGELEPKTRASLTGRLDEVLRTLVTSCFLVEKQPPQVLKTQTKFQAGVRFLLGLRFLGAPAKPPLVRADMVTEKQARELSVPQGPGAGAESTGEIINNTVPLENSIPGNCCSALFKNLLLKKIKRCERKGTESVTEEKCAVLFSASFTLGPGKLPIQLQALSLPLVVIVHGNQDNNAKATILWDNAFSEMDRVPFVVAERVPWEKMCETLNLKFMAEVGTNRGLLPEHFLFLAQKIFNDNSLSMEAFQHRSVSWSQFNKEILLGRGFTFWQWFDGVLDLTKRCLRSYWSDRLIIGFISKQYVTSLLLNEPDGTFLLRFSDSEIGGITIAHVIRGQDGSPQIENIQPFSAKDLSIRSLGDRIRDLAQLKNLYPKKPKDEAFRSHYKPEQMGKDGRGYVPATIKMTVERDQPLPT
In words: STAT6 Fluorescence Polarization (FP) Assay. To be noted: STAT6 (W123-T658) 250 nM, probe 5-FAM-Ap[…]-NH2 2 nM, 45-minute incubation; read-out: STAT6 (FP assay IC50 class). Format: binding. An outline of the steps: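 Probe displacement format: serially diluted compounds incubated 45 min at room temperature with 2 nM fluorescent phosphopeptide and 250 nM STAT6 (W123-T658) in pH 7.4 HEPES buffer, 1% DMSO final. Polarization signal plotted against log concentration, IC50 fitted by nonlinear regression.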
Background: In fluorescence polarisation assays a small probe gives low polarisation when free and higher when bound to something large.

Broadly, the IC50 is the concentration that gives 50% inhibition.

T1 sequence (P40763 127-722): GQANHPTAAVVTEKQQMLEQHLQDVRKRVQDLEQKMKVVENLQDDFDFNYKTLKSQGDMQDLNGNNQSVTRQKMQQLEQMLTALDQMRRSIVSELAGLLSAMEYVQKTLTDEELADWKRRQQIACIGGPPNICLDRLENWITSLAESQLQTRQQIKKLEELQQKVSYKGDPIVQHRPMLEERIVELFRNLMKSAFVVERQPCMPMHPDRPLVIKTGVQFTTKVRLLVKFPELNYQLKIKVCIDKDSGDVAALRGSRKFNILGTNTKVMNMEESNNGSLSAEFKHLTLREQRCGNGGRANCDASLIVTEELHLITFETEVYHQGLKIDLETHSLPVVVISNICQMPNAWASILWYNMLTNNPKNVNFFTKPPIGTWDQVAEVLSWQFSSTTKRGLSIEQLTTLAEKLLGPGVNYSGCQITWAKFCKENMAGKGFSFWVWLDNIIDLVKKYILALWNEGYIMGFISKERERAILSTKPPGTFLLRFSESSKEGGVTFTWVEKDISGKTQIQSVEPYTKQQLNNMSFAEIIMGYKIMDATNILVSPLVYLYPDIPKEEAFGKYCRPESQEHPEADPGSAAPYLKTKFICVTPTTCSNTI

As to `O=C(N[C@H]1CCCC[C@H]2CC[C@@H](C(=O)N3CC(c4cccnc4)C3)N2C1=O)c1cc2cc(CP(=O)(O)O)ccc2s1` [Compound 663, ((2-(((3S,6S,10aS)-5-oxo-3-(3-(pyridin-3-yl)azetidine-1-carbonyl)decahydropyrrolo[1,2-a]azocin-6-yl)carbamoyl)benzo [b]thiophen-5-yl)methyl) phosphonic acid], the IC50 lay within 0.1 to 1 µM in test [1] and 3 to 30 µM in test [2].

In the case of `O=C(N[C@H]1CCC[C@H]2CC[C@@H](C(=O)N3CC(c4cnccc4F)C3)N2C1=O)c1cc2cc(C(F)P(=O)(O)O)ccc2s1` (stereo partly drawn) [Compound 664, (fluoro(2-(((3S,6S,9aS)-3-(3-(4-fluoropyridin-3-yl)azetidine-1-carbonyl)-5-oxooctahydro-1H-pyrrolo[1,2-a]azepin-6-yl)carbamoyl)benzo [b]thiophen-5-yl)methyl) phosphonic acid], the IC50 in test [1] was < 0.1 µM; in test [2] it was 0.3 to 3 µM.

In the case of `O=C(N[C@H]1CCC[C@H]2CC[C@@H](C(=O)N3CC(c4cnccc4N4CC[C@H](F)C4)C3)N2C1=O)c1cc2cc(CP(=O)(O)O)ccc2s1` [Compound 666, ((2-(((3S,6S,9aS)-3-(3-(4-((S)-3-fluoropyrrolidin-1-yl)pyridin-3-yl)azetidine-1-carbonyl)-5-oxooctahydro-1H-pyrrolo[1,2-a]azepin-6-yl)carbamoyl)benzo [b]thiophen-5-yl)methyl) phosphonic acid], the IC50 in test [1] was < 0.1 µM; in test [2] it was 3 to 30 µM.

In the case of `O=C(N[C@H]1CCC[C@H]2CC[C@@H](C(=O)N3CC(c4cnccc4N4CC[C@@H]4C(F)F)C3)N2C1=O)c1cc2cc(CP(=O)(O)O)ccc2s1` [Compound 668, ((2-(((3S,6S,9aS)-3-(3-(4-((R)-2-(difluoromethyl)azetidin-1-yl)pyridin-3-yl)azetidine-1-carbonyl)-5-oxooctahydro-1H-pyrrolo[1,2-a]azepin-6-yl)carbamoyl)benzo [b]thiophen-5-yl)methyl) phosphonic acid], the IC50 is < 0.1 µM in test [1] and 3 to 30 µM in test [2].

`O=C(N[C@H]1CCC[C@H]2CC[C@@H](C(=O)N3CC(c4ccccc4N4CCOCC4)C3)N2C1=O)c1cc2cc(C(F)P(=O)(O)O)ccc2s1` (stereo partly drawn) [Compound 670, (fluoro(2-(((3S,6S,9aS)-3-(3-(2-morpholinophenyl)azetidine-1-carbonyl)-5-oxooctahydro-1H-pyrrolo[1,2-a]azepin-6-yl)carbamoyl)benzo [b]thiophen-5-yl)methyl) phosphonic acid]: the IC50 was 0.1 to 1 µM in test [1] and 3 to 30 µM in test [2].

For `O=C(N[C@H]1CCC[C@H]2CC[C@@H](C(=O)N3CC(c4cnccc4N4C5COCC4C5)C3)N2C1=O)c1cc2cc(C(F)P(=O)(O)O)ccc2s1` (stereo partly drawn) [Compound 671, ((2-(((3S,6S,9aS)-3-(3-(4-(3-oxa-6-azabicyclo[3.1.1]heptan-6-yl)pyridin-3-yl)azetidine-1-carbonyl)-5-oxooctahydro-1H-pyrrolo[1,2-a]azepin-6-yl)carbamoyl)benzo [b]thiophen-5-yl)fluoromethyl) phosphonic acid], the IC50 in test [1] is < 0.1 µM; in test [2] it was 0.3 to 3 µM.

With `O=C(N[C@H]1CCC[C@H]2CC[C@@H](C(=O)N3CC(C4=CCCOC4)C3)N2C1=O)c1cc2cc(CP(=O)(O)O)ccc2s1` [Compound 672, ((2-(((3S,6S,9aS)-3-(3-(5,6-dihydro-2H-pyran-3-yl)azetidine-1-carbonyl)-5-oxooctahydro-1H-pyrrolo[1,2-a]azepin-6-yl)carbamoyl)benzo [b]thiophen-5-yl)methyl) phosphonic acid], the values for the IC50 in test [1] and in test [2] were 1 to 10 µM and 3 to 30 µM, respectively.

As for `Cc1nnc([C@H]2[C@H](c3ccccc3)CN2C(=O)[C@@H]2CC[C@@H]3CCC[C@H](NC(=O)c4cc5cc(C(F)P(=O)(O)O)ccc5s4)C(=O)N32)o1` (stereo partly shown) [Compound 673], the IC50 lay in the range of 0.1 to 1 µM in test [1] and 3 to 30 µM in test [2].
